Laboratory results from PubChem BioAssay (NCI).
Values joined by “and” are separate entries in the source; they are usually repeats but may differ in a detail not shown here. Equal values may be shown once.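 Cells were grown in 96-well plates and exposed to each compound for 48 hours at five concentrations; endpoints were interpolated linearly between bracketing concentrations, or set to the highest concentration if not reached. At the GI50, growth is halved. At the TGI there is no net growth.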

Legend:
Assay in all cases: NCI anticancer screen, dose series, 48 h
NCI-H522 lung = tested on: NCI-H522 lung
DU-145 prostate = tested on: DU-145 prostate
CAKI-1 renal = tested on: CAKI-1 renal
NCI-H460 lung = tested on: NCI-H460 lung
SR leukemia = tested on: SR leukemia
HCT-116 colon = tested on: HCT-116 colon
UACC-62 melanoma = tested on: UACC-62 melanoma
OVCAR-8 ovarian = tested on: OVCAR-8 ovarian
HL-60(TB) leukemia = tested on: HL-60(TB) leukemia
HOP-92 NSCLC = tested on: HOP-92 NSCLC

SMILES | TGI (NCI-H522 lung) | TGI (DU-145 prostate) [µM] | TGI (CAKI-1 renal) [µM] | TGI (NCI-H460 lung) | TGI (SR leukemia) | TGI (HCT-116 colon) | TGI (UACC-62 melanoma) | TGI (OVCAR-8 ovarian) | TGI (HL-60(TB) leukemia) | TGI (HOP-92 NSCLC) | GI50 (SR leukemia) | GI50 (OVCAR-8 ovarian) | GI50 (NCI-H522 lung) [µM] | GI50 (DU-145 prostate) [µM] | GI50 (CAKI-1 renal) [µM] | GI50 (NCI-H460 lung) [µM] | GI50 (HOP-92 NSCLC) [µM] | GI50 (HCT-116 colon) [µM] | GI50 (UACC-62 melanoma) [µM] | GI50 (HL-60(TB) leukemia) [µM]
CCN(CC)CCO/N=C1\CC[C@H]2[C@@H]3CC=C4C[C@@H](O)CC[C@]4(C)[C@H]3CC[C@]12C | 34 µM | 65.7 | 30 | 29.8 µM | 26.4 µM | 30.2 µM | 31.1 µM | 64.6 µM | 44.5 µM | – | – | – | – | – | – | – | – | – | – | –
CC1=C(C(=O)OCCc2ccc([N+](=O)[O-])cc2)C(c2ccccc2[N+](=O)[O-])C(C(=O)OC(C)C)=C(C)N1 (centres undefined) | 7.82 µM | > 100 | > 100 | > 100 µM | > 100 µM | > 100 µM | 58.4 µM | > 100 µM | 8.48 µM | – | – | – | – | – | – | – | – | – | – | –
O=C(Nn1c(-c2ccccc2)nc2ccccc2c1=O)c1ccccn1 | > 100 µM | > 100 | – | > 100 µM | > 100 µM | > 100 µM | > 100 µM | > 100 µM | > 100 µM | > 100 µM | – | – | – | – | – | – | – | – | – | –
COC(=O)[C@H](C)N1C(=O)N[C@@H](C(C)C)C1=O | > 100 µM | > 100 | > 100 | > 100 µM | > 100 µM | > 100 µM | > 100 µM | > 100 µM | – | > 100 µM | – | – | – | – | – | – | – | – | – | –
COC(=O)c1ccc(-c2nc(C#N)c(N)o2)cc1 | > 100 µM | > 100 | > 100 | > 100 µM | > 100 µM | > 100 µM | – | > 100 µM | – | – | – | – | – | – | – | – | – | – | – | –
O=C(O)/C=C(/CC(=O)O)C(=O)O | 35.7 µM | 45.7 | 54.1 | > 100 µM | – | 35.6 µM | 36.7 µM | 46.6 µM | 42.9 µM | – | – | – | – | – | – | – | – | – | – | –
CCOc1ccc2[nH]c3c(C)c4cc[n+](C)cc4c(C)c3c2c1 | 3.05 µM and 3.57 µM | – | > 35.3 | 11.5 µM and 12.6 µM | 13.7 µM and > 62.5 µM | 18.5 µM and > 37.7 µM | 5.48 µM and 12.3 µM | 9.87 µM and 11.6 µM | 29.9 µM and > 52.2 µM | 13.1 µM and 25.3 µM | 1.13 µM and 2.69 µM | 0.236 µM and 0.51 µM | – | – | – | – | – | – | – | –
COP(=O)(OC)C(N)CCSC (centres undefined) | > 100 µM | – | > 100 | > 100 µM | > 100 µM | > 100 µM | > 100 µM | > 100 µM | > 100 µM | > 100 µM | – | – | – | – | – | – | – | – | – | –
CC1(O)C=CC2CCC1C2O (centres undefined) | > 100 µM | – | > 100 | > 100 µM | 50.2 µM | 36.2 µM | > 100 µM | > 100 µM | > 100 µM | – | – | – | – | – | – | – | – | – | – | –
COC(=O)c1sc(=S)sc1SCc1ccccc1CSc1sc(=S)sc1C(=O)OC | > 100 µM | > 100 | > 100 | > 100 µM | – | > 100 µM | > 100 µM | > 100 µM | – | > 100 µM | – | – | – | – | – | – | – | – | – | –
O=C(/C=C/c1ccc(-c2ccccc2[N+](=O)[O-])o1)NCc1ccc(C(=O)NCCc2ccccc2)cc1 | > 100 µM | > 100 | > 100 | > 100 µM | > 100 µM | > 100 µM | > 100 µM | > 100 µM | – | > 100 µM | – | – | – | – | – | – | – | – | – | –
CN=C(Nn1cnnc1)OC | > 100 µM | > 100 | > 100 | > 100 µM | > 100 µM | > 100 µM | > 100 µM | > 100 µM | – | > 100 µM | – | – | – | – | – | – | – | – | – | –
O=c1[nH]c(=O)n(C2OC(COP(=O)(O)OP(=O)(O)O)C(O)C2O)cc1F (centres undefined) | 34.3 µM | – | 34.8 | 12.7 µM | > 50 µM | > 17 µM | > 42.6 µM | > 50 µM | > 50 µM | > 50 µM | – | – | – | – | – | – | – | – | – | –
N#Cc1c(Nc2ccc(F)cc2)[n+]([O-])c2ccc(Cl)cc2[n+]1[O-] | – | > 100 | 20.9 | 7.97 µM | – | > 100 µM | 17.2 µM | > 100 µM | – | 5.16 µM | – | – | – | – | – | – | – | – | – | –
S=C(N/N=C\C=N/NC(=S)N1CCCCCC1)N1CCCCCC1 | > 100 µM | > 86.2 | > 100 | > 100 µM | – | > 100 µM | > 100 µM | > 100 µM | – | > 100 µM | – | – | – | – | – | – | – | – | – | –
CCOC(=O)c1ccc(C(=O)C(C(C)=O)C(=O)OC(C)(C)C)n1C (centres undefined) | > 100 µM | > 100 | > 100 | > 100 µM | > 100 µM | > 100 µM | > 100 µM | > 100 µM | > 100 µM | – | – | – | – | – | – | – | – | – | – | –
O=C1c2[nH]cc(CN3CCNCC3)c2C(=O)c2c1c(O)c1ccccc1c2O | 3.65 µM | 3.06 | 5.94 | > 78.3 µM | > 100 µM | 2.25 µM | 3.28 µM | – | > 100 µM | 13.1 µM | 6.09 µM | – | 1.76 | 1.67 | 2.21 | 18.5 | 3.05 | 1.07 | 1.71 | 22
O=C(CC(O)(C(F)(F)F)C(F)(F)F)C(CCCl)C(O)(C(F)(F)F)C(F)(F)F (centres undefined) | > 100 µM | > 100 | 77.1 | 88.6 µM | > 100 µM | > 100 µM | > 100 µM | 83.9 µM | 86.5 µM | – | – | – | – | – | – | – | – | – | – | –
CC1(C)O[C@@H](CO)[C@H]([C@@]23OC[C@H]4OC(C)(C)OC4[C@@H]2OC(C)(C)O3)O1 (some centres undefined) | > 100 µM | > 100 | – | > 100 µM | > 100 µM | > 100 µM | – | > 100 µM | > 100 µM | > 100 µM | – | – | – | – | – | – | – | – | – | –
Cc1cc(C)c(S(=O)(=O)N(CCCCN)OCCCN)c(C)c1 | 29.9 µM | 29.4 | 31.3 | 33.4 µM | 38 µM | 30.9 µM | 30.7 µM | 32.8 µM | – | 34.5 µM | – | – | – | – | – | – | – | – | – | –
Cc1cc(Cc2c(F)c(F)c(Cc3cc(C)no3)c(F)c2F)on1 | > 100 µM | > 100 | 24.6 | – | – | > 100 µM | > 100 µM | > 100 µM | > 100 µM | > 100 µM | – | – | – | – | – | – | – | – | – | –
CC1(C)COC(c2cccc(C3=NC(C)(C)CO3)c2Br)=N1 | – | > 100 | > 100 | > 100 µM | > 100 µM | > 100 µM | > 100 µM | > 100 µM | > 100 µM | > 100 µM | – | – | – | – | – | – | – | – | – | –
